# Measured values published in patent US20260217707A1, “GLP-1R AGONISTS AND USES THEREOF” (Fochon Biosciences, Ltd., priority 2023, published 2026).
# Molecular target: GLP1R receptor (Homo sapiens, UniProt P43220)
# Assay: cAMP assay: intracellular cAMP detected by TR-FRET
# Type: cell-based
# Details: cells incubated with compound at 37° C. for 30 min, maximum concentration 12 μM
# Procedure: Intracellular cAMP concentration was detected by TR-FRET method to evaluate the activity of drug-induced GLP1R receptor. The cells were prepared in an experimental buffer solution (HBSS, 20 mM HEPES (pH 7.5), 0.1% BSA, 500 μM IBMX) and inoculated into 384 cell culture plates with a inoculated density of 2000 cells and a inoculated volume of 15 μL per well. The compound was diluted by 3 times gradient with DMSO, 10 concentration gradients, and the 10 concentration gradients were diluted by 100 times in Buffer. The maximum concentration point of compound to be tested was 12 μM. The inoculated 384 cell plates were added with 5 μL prepared working solution and incubated at 37° C. for 30 min. Eu-cAMP tracer was diluted 50 times and Ulight-anti-cAMP 150 times by detection buffer (cAMP Kit, Perkin Elmer, cat #TRF0263). At first, 10 μL Eu-cAMP tracer was added to each experimental well, and then 10 μL Uligh-anti-cAMP was added to each experimental well. Centrifuged the assay plate at 200 g, RT, for 30 s, incubated it at 25° C. for 1 h. Collected the data by Envision 2105 microplate reader with a HTRF module. Excitation: 340 nm; emission: 665 nm and 615 nm.
# The activation rate of each concentration of the tested compound to the positive drug was calculated by the formula % Activity=100 (SignalcmpdSignalAve_PC)/(SignalAve_VCSignalAve_PC)×100, EC50 values and nonlinear regression curve fits were obtained using GraphPad Prism software.
# Chain of GLP1R receptor (P43220 24-463): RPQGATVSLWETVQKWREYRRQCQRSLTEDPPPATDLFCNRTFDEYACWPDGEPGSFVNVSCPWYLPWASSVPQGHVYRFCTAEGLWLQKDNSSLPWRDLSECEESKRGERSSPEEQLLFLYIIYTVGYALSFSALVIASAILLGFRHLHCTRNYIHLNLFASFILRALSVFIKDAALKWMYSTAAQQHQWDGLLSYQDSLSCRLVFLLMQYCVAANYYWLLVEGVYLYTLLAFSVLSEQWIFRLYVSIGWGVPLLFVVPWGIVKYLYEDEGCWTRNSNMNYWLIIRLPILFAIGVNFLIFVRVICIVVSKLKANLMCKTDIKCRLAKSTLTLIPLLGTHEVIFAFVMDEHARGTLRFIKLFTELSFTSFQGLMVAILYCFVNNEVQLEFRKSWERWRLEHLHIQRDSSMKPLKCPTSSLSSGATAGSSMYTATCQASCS
row,EC50 [nM],SMILES
1,0.406,Cc1cc(-n2nc3c(c2-n2ccn(-c4ccc5c(cnn5C)c4F)c2=O)[C@H](C)N(C(=O)c2sc4cc(C5CCOC(C)(C)C5)ccc4c2C2(c4noc(=O)[nH]4)C[C@@H]2C)CC3)cc(C)c1F (some centres unmarked) [Example 3]
2,0.087,"Cc1cc(-n2nc3c(c2N2C(=O)N(c4ccc5c(cnn5C)c4F)C4CC42)[C@H](C)N(C(=O)c2cc4cc([C@H]5CCOC(C)(C)C5)ccc4n2[C@@]2(c4noc(=O)[nH]4)C[C@@H]2C)CC3)cc(C)c1F (stereo partly drawn) [Example 6, 3-((1S,2S)-1-(5-((S)-2,2-dimethyltetrahydro-2H-pyran-4-yl)-2-((4S)-3-(4-(4-fluoro-1-methyl-1H-indazol-5-yl)-3-oxo-2,4-diazabicyclo[3.1.0]hexan-2-yl)-2-(4-fluoro-3,5-dimethylphenyl)-4-methyl-4,5,6,7-tetrahydro-2H-pyrazolo[4,3-c]pyridine-5-carbonyl)-1H-indol-1-yl)-2-methylcyclopropyl)-1,2,4-oxadiazol-5(4H)-one]"
3,0.093,"Cc1cc(-n2nc3c(c2-n2ccn(-c4ccc5c(cnn5C)c4F)c2=O)[C@H](C)N(C(=O)c2sc4nc(C5CCOC(C)(C)C5)ccc4c2C2(c4noc(=O)[nH]4)C[C@@H]2C)CC3)cc(C)c1F (stereo partly drawn) [Example 29, 3-((2S)-1-(6-(2,2-dimethyl-tetrahydro-2H-pyran-4-yl)-2-((S)-3-(3-(4-fluoro-1-methyl-1H-indazol-5-yl)-2-oxo-2,3-dihydro-1H-imidazol-1-yl)-2-(4-fluoro-3,5-dimethyl-phenyl)-4-methyl-4,5,6,7-tetrahydro-2H-pyrazolo[4,3-c]pyridine-5-carbonyl)thieno [2,3-b]pyridin-3-yl)-2-methylcyclopropyl)-1,2,4-oxadiazol-5(4H)-one]"
4,0.044,"Cc1cc(-n2nc3c(c2-n2ccn(-c4ccc5c(cnn5C)c4F)c2=O)[C@H](C)N(C(=O)c2sc4cc(C5CCOC(C)(C)C5)cnc4c2C2(c4noc(=O)[nH]4)C[C@@H]2C)CC3)cc(C)c1F (stereo partly drawn) [Example 30, 3-((2S)-1-(6-(2,2-dimethyl-tetrahydro-2H-pyran-4-yl)-2-((S)-3-(3-(4-fluoro-1-methyl-1H-indazol-5-yl)-2-oxo-2,3-dihydro-1H-imidazol-1-yl)-2-(4-fluoro-3,5-dimethylphenyl)-4-methyl-4,5,6,7-tetrahydro-2H-pyrazolo[4,3-c]pyridine-5-carbonyl)thieno[3,2-b]pyridin-3-yl)-2-methyl-cyclopropyl)-1,2,4-oxadiazol-5(4H)-one]"
5,0.182,"Cc1cc(-n2nc3c(c2-n2ccn(-c4ccc5c(cnn5C)c4F)c2=O)[C@H](C)N(C(=O)c2oc4cc(C5CCOC(C)(C)C5)ncc4c2C2(c4noc(=O)[nH]4)C[C@@H]2C)CC3)cc(C)c1F (stereo partly drawn) [Example 31, 3-((2S)-1-(6-(2,2-dimethyl-tetrahydro-2H-pyran-4-yl)-2-((S)-3-(3-(4-fluoro-1-methyl-1H-indazol-5-yl)-2-oxo-2,3-dihydro-1H-imidazol-1-yl)-2-(4-fluoro-3,5-dimethylphenyl)-4-methyl-4,5,6,7-tetrahydro-2H-pyrazolo[4,3-c]pyridine-5-carbonyl)furo[3,2-c]pyridin-3-yl)-2-methyl-cyclopropyl)-1,2,4-oxadiazol-5(4H)-one]"
